Results as given in PMC12730222, “The Adaptable Binding Cleft of RmuAP1, a Pepsin-like Peptidase from Rhodotorula mucilaginosa, Enables the Enzyme to Degrade Immunogenic Peptides Derived from Gluten” (Biomolecules, 2025).
Non-standard residues stand in square brackets, D forms with d. Residues, ends and D or L forms follow the SMILES beside them. *: point of attachment. Sta = CC(C)C[C@H](N)[C@@H](O)CC(=O)O; Isovaleryl = CC(C)CC(=O)*

Molecular target: T1, RmuAP1 (Rhodotorula mucilaginosa, UniProt A0A9P6W3R0)
T1 construct: gene PEP1_2; mature catalytic domain (printed as 300 residues, though residue Ile304 is named), pre- and propeptide removed, C-terminal His6; secreted by Yarrowia lipolytica Po1g
T1 sequence (A0A9P6W3R0 96-425): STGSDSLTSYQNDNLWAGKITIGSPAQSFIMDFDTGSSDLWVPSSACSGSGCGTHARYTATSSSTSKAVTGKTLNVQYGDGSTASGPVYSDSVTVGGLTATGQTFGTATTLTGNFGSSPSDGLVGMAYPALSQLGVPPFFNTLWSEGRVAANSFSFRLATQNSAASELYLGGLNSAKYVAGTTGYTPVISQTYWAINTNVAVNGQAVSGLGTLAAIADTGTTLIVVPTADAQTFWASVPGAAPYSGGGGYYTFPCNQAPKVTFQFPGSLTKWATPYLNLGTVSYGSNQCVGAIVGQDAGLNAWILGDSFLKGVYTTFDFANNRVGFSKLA
Experiment: X-ray crystal structure of the complex, […] Å
Format: binding
Conditions: crystallised at pH 6.5, 2 M NaCl, 20 °C; active-site cleft, subsites S4 to S2'

CC(C)CC(=O)N[C@H](C(=O)N[C@H](C(=O)N[C@@H](CC(C)C)[C@@H](O)CC(=O)N[C@@H](C)C(=O)N[C@@H](CC(C)C)[C@@H](O)CC(=O)O)C(C)C)C(C)C [pepstatin A] (Isovaleryl-VV[Sta]A[Sta]-OH)
X-ray crystal structure of the complex, 1.78 Å: The crystal structure of the RmuAP1 complexed with pepstatin A was determined
